Assay results published in publication PMC8445441, “Elucidating the mechanism by which synthetic helper peptides sensitize Pseudomonas aeruginosa to multiple antibiotics” (PLoS Pathogens, 2021).
Positions of bridges follow the written chain, without caps; N, C: chain ends. Non-standard residues stand in square brackets, D forms with d. Residues, ends and D or L forms follow the SMILES beside them. *: point of attachment. X1 = CC[C@H](C)CCCCC(=O)*; Dab = NCC[C@H](N)C(=O)O

Legend:
P. aeruginosa AUMC-Pa-2 = details: strain AUMC-Pa-2
Description: (§1) The MIC tests were performed in triplicate using broth microdilution in accordance with Clinical and Laboratory Standards Institute (CLSI) recommendations (http://iacld.ir/DL/public/CLSI-2018-M100-S28.pdf). Briefly, drugs were two-fold diluted in MHB and mixed with an equal volume of bacterial suspensions containing approximately 1 × 10^6 CFU/mL in 96-well microliter plate. After 18 h incubation at 37 °C, the MIC values were defined as the lowest concentrations of antibiotics with no visible growth of bacteria. […] Otherwise, 1/4 MIC of the peptide was used in the combination. […] If needed, membrane compounds PG, PE, PC, CL or LPS, or membrane stabilizers MgCl2 or CaCl2, or efflux pumps inhibitor PAβN were added to the broth medium to clarify the effect of other substances on the synergy between peptide and antibiotics. All the tests were performed in triplicate.
(§2) The fractional inhibitory concentration (FIC) indices were calculated using the previously described formula FICI = FICa + FICb = MICac/MICa + MICbc/MICb. The FICI was interpreted according to EUCAST [65] as follows: synergistic, FICI≤0.5; additive, 0.5<FICI≤1; indifferent, 1<FICI<2; antagonistic, FICI ≥2. For the FICI calculations, twice the highest concentration tested was used in the cases where the MIC was not reached.

P. aeruginosa AUMC-Pa-1 = details: strain AUMC-Pa-1
Description: as §1, §2

P. aeruginosa AUMC-Pa-6 = assay: microbe, parasite or virus in culture; details: strain AUMC-Pa-6
Method in brief: (§3)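 Growth inhibition was scored by eye after an 18 h, 37 °C incubation of drug-bacteria mixtures in Mueller-Hinton broth. Inoculum suspension held approximately 1 × 10^6 CFU/mL before 1:1 mixing.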

P. aeruginosa AUMC-Pa-3 = assay: microbe, parasite or virus in culture; details: strain AUMC-Pa-3
Method in brief: as §3

P. aeruginosa AUMC-Pa-5 = assay: microbe, parasite or virus in culture; details: strain AUMC-Pa-5
Method in brief: as §3

P. aeruginosa PAO1 = assay: microbe, parasite or virus in culture; details: for MICac: the MIC for the antibiotic in the combination: S3 Table, PAO1
Method in brief: as §3

P. aeruginosa AUMC-Pa-4 = assay: microbe, parasite or virus in culture; details: strain AUMC-Pa-4
Method in brief: as §3

[1] = test system: clinical P. aeruginosa isolates; assay: microbe, parasite or virus in culture; details: antibiotic alone
Method in brief: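 Broth microdilution per CLSI in MHB, two-fold drug dilutions mixed with an equal volume of bacteria at about 1 × 10^6 CFU/mL. After 18 h at 37 °C, MIC taken as the lowest concentration with no visible growth; run in triplicate.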

P. aeruginosa ATCC27853 = assay: microbe, parasite or virus in culture; parameters: MICa: MIC of the antibiotic / MICac: MIC of the antibiotic in the combination: unit not given beside the values; details: strain ATCC27853
Description: as §1, §2

P. aeruginosa PA14 = assay: microbe, parasite or virus in culture; parameters: MICa: MIC of the antibiotic / MICac: MIC of the antibiotic in the combination: unit not given beside the values; details: strain PA14
Description: as §1, §2

P. aeruginosa NR-31041 = assay: microbe, parasite or virus in culture; parameters: MICa: MIC of the antibiotic / MICac: MIC of the antibiotic in the combination: unit not given beside the values; details: strain NR-31041
Description: as §1, §2

P. aeruginosa PAK = assay: microbe, parasite or virus in culture; parameters: MICa: MIC of the antibiotic / MICac: MIC of the antibiotic in the combination: unit not given beside the values; details: strain PAK
Description: as §1, §2

P. aeruginosa NR-31040 = assay: microbe, parasite or virus in culture; parameters: MICa: MIC of the antibiotic / MICac: MIC of the antibiotic in the combination: unit not given beside the values; details: strain NR-31040
Description: as §1, §2

P. aeruginosa HM-214 = test system: P. aeruginosa HM-214; parameters: MICa: MIC of the antibiotic / MICac: MIC of the antibiotic in the combination: unit not given beside the values; details: strain HM-214
Description: as §1, §2

[2] = antibiotic + D-11 (MICb/MICbc 64/4)
[3] = antibiotic alone, unit not given
[4] = with D-11 at MICbc 4, unit not given
[5] = antibiotic + D-11 (MICb/MICbc 128/4)

CC[C@H](C)CCCCC(=O)N[C@@H](CCN)C(=O)N[C@H](C(=O)N[C@@H](CCN)C(=O)N[C@H]1CCNC(=O)[C@H]([C@@H](C)O)NC(=O)[C@H](CCN)NC(=O)[C@H](CCN)NC(=O)[C@H](CC(C)C)NC(=O)[C@@H](CC(C)C)NC(=O)[C@H](CCN)NC1=O)[C@@H](C)O [Colistin] (X1-[Dab]T[Dab][Dab][Dab][dL]L[Dab][Dab]T; lactam 4-C (inferred); N-terminus assumed)
FICI (P. aeruginosa AUMC-Pa-2; [2]): 1.063
MICa: MIC of the antibiotic (P. aeruginosa AUMC-Pa-2; [3]): 0.5/0.5
MICac: MIC of the antibiotic in the combination (P. aeruginosa AUMC-Pa-2; [4]): 0.5/0.5
FICI (P. aeruginosa AUMC-Pa-1; [5]): 0.281
MICa: MIC of the antibiotic (P. aeruginosa AUMC-Pa-1; [3]): 0.5
MICac: MIC of the antibiotic in the combination (P. aeruginosa AUMC-Pa-1; [4]): 0.125
FICI (P. aeruginosa AUMC-Pa-6; [2]): 0.563
MICa: MIC of the antibiotic (P. aeruginosa AUMC-Pa-6; [3]): 4
MICac: MIC of the antibiotic in the combination (P. aeruginosa AUMC-Pa-6; [4]): 2
FICI (P. aeruginosa AUMC-Pa-3; [5]): 0.039
MICa: MIC of the antibiotic (P. aeruginosa AUMC-Pa-3; [3]): 0.25
MICac: MIC of the antibiotic in the combination (P. aeruginosa AUMC-Pa-3; [4]): 0.002
FICI (P. aeruginosa AUMC-Pa-5; [2]): 1.063
MICa: MIC of the antibiotic (P. aeruginosa AUMC-Pa-5; [3]): 4/4
MICac: MIC of the antibiotic in the combination (P. aeruginosa AUMC-Pa-5; [4]): 4/4
MICa: the MIC of antibiotics (P. aeruginosa PAO1; PAO1, 18 h): 0.25 µM
MICac: the MIC for the antibiotic in the combination (P. aeruginosa PAO1; with 2 μM D-11): 0.004 µM
MICac: the MIC for the antibiotic in the combination (P. aeruginosa PAO1; with 4 μM D-11): 0.001 µM
FICI (P. aeruginosa AUMC-Pa-4; [5]): 0.531
MICa: MIC of the antibiotic (P. aeruginosa AUMC-Pa-4; [3]): 8
MICac: MIC of the antibiotic in the combination (P. aeruginosa AUMC-Pa-4; [4]): 4
Antibiotic sensibility (MIC) of clinical P. aeruginosa isolate AUMC-Pa-1 ([1]; strain AUMC-Pa-1): 0.5 µM
Antibiotic sensibility (MIC) of clinical P. aeruginosa isolate AUMC-Pa-2 ([1]; strain AUMC-Pa-2): 0.5 µM
Antibiotic sensibility (MIC) of clinical P. aeruginosa isolate AUMC-Pa-3 ([1]; strain AUMC-Pa-3): 0.25 µM
Antibiotic sensibility (MIC) of clinical P. aeruginosa isolate AUMC-Pa-4 ([1]; strain AUMC-Pa-4): 8 µM
Antibiotic sensibility (MIC) of clinical P. aeruginosa isolate AUMC-Pa-5 ([1]; strain AUMC-Pa-5): 4 µM
Antibiotic sensibility (MIC) of clinical P. aeruginosa isolate AUMC-Pa-6 ([1]; strain AUMC-Pa-6): 4 µM
Antibiotic sensibility (MIC) of clinical P. aeruginosa isolate HM-214 ([1]; strain HM-214): 1 µM
Antibiotic sensibility (MIC) of clinical P. aeruginosa isolate NR-31040 ([1]; strain NR-31040): 1 µM
Antibiotic sensibility (MIC) of clinical P. aeruginosa isolate NR-31041 ([1]; strain NR-31041): 0.125 µM
FICI (P. aeruginosa ATCC27853; antibiotic + D-11 (MICb/MICbc 32/4)): 0.375
MICa: MIC of the antibiotic (P. aeruginosa ATCC27853; [3]): 0.25
MICac: MIC of the antibiotic in the combination (P. aeruginosa ATCC27853; [4]): 0.063
FICI (P. aeruginosa PA14; [5]): 0.094
MICa: MIC of the antibiotic (P. aeruginosa PA14; [3]): 0.25
MICac: MIC of the antibiotic in the combination (P. aeruginosa PA14; [4]): 0.016
FICI (P. aeruginosa NR-31041; [2]): 0.127
MICa: MIC of the antibiotic (P. aeruginosa NR-31041; [3]): 0.125
MICac: MIC of the antibiotic in the combination (P. aeruginosa NR-31041; [4]): 0.008
FICI (P. aeruginosa PAK; [2]): 0.079
MICa: MIC of the antibiotic (P. aeruginosa PAK; [3]): 0.25
MICac: MIC of the antibiotic in the combination (P. aeruginosa PAK; [4]): 0.008
FICI (P. aeruginosa NR-31040; [5]): 0.281
MICa: MIC of the antibiotic (P. aeruginosa NR-31040; [3]): 1
MICac: MIC of the antibiotic in the combination (P. aeruginosa NR-31040; [4]): 0.25
FICI (P. aeruginosa HM-214; [5]): 0.063
MICa: MIC of the antibiotic (P. aeruginosa HM-214; [3]): 1
MICac: MIC of the antibiotic in the combination (P. aeruginosa HM-214; [4]): 0.031
